These results are taken from patent publication US20230365563A1, “QUINAZOLINE COMPOUND AND APPLICATION THEREOF” (SHANGHAI PHARMACEUTICALS HOLDING CO., LTD., priority 2020, published 2023).

Structures are written as SMILES. Structures can show the parent of a compound that is named as a salt.

Usually IC50 stands for the concentration that inhibits the measured activity by half.

The target in one test is T1, KRAS_WT and SOS1 (Homo sapiens, UniProt P01116).
T1 construct: purchased
As to the kind of experiment: Inhibition of KRAS_WT/SOS1 binding (Cisbio binding kit, 665/615 ratio), Effect Embodiment C. The conditions noted are these: read-out: GTP-KRAS-WT:SOS1 IC50. A digest of the protocol: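 Compounds tested as 3-fold, 11-point dilutions in duplicate at 1% DMSO final against the KRAS_WT/SOS1 binding system. IC50 derived by nonlinear regression fit.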

Another test has as its target T2, KRAS-G12D and SOS1 (Homo sapiens, UniProt P01116, G12D).
T2 construct: purchased
As to the kind of experiment: Inhibition of KRAS-G12D/SOS1 binding (Cisbio binding kit, 665/615 ratio), Effect Embodiment A. Particulars: read-out: GTP-KRAS-G12D:SOS1 IC50. A digest of the protocol: (§1)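 Duplicate wells received an eleven-point, threefold compound titration whose top point was the stock solution; final DMSO 1%.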

The next test has as its target T3, KRAS_G12D and cRAF (Homo sapiens, UniProt P01116, G12D).
T3 construct: purchased
As to the kind of experiment: Inhibition of KRAS_G12D/cRAF binding (Cisbio binding kit, 665/615 ratio), Effect Embodiment B. The conditions noted are these: read-out: GTP-KRAS-G12D:CRAF IC50. A digest of the protocol: as §1

T1 sequence (P01116 1-188 isoform P01116-2): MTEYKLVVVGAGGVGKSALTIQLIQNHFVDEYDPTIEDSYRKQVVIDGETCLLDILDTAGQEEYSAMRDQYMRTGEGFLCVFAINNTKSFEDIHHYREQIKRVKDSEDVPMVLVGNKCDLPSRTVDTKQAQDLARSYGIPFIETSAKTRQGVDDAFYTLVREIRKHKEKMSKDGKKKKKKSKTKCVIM
T2 sequence (P01116 1-188 isoform P01116-2 G12D): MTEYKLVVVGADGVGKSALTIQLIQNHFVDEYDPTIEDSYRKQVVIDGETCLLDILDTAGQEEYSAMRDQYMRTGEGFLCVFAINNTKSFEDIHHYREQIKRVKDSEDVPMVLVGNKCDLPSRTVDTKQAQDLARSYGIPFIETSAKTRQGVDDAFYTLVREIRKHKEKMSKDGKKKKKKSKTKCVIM
T3 sequence (P01116 1-188 isoform P01116-2 G12D): as above

As to `C[C@@H](COc1nc(N2CC3CCC(C2)N3)c2cc(Cl)c(-c3cc(O)cc(Cl)c3C3CC3)c(F)c2n1)CN1C2CCC1COC2` (single isomer, unassigned) [Compound 227, 3-((7S or 7R)-2-((2R)-3-(3-oxa-8-azabicyclo[3.2.1]octan-8-yl)-2-methylpropoxy)-4-((1R,5S)-3,8-diazabicyclo[3.2.1]octan-3-yl)-6-chloro-8-fluoroquinazolin-7-yl)-5-chloro-4-cyclopropylphenol formate], the IC50 amounted to 593 nM at KRAS_WT and SOS1; 16.7 nM at KRAS-G12D and SOS1; 23.4 nM on KRAS_G12D and cRAF.

For the molecule `CN(C)C1CN(c2nc(N3CC4(CCNC4)C3)c3cc(Cl)c(-c4cc(O)cc5ccccc45)c(F)c3n2)C1` (single isomer, unassigned) [Compound 8a, (R or S)-4-(6-chloro-2-(3-(dimethylamino)azetidin-1-yl)-8-fluoro-4-(2,6-diazaspiro[3.4]octan-2-yl)quinazolin-7-yl)naphthalen-2-ol], the IC50 came to 5340 nM on KRAS_WT and SOS1; 461 nM at KRAS-G12D and SOS1; 1170 nM on KRAS_G12D and cRAF.

As for `CN1CCC[C@H]1COc1nc(N2CC3(C)CCC(C)(C2)N3)c2cc(Cl)c(-c3cc(O)cc4ccccc34)c(F)c2n1` (single isomer, unassigned) [Compound 194a, 4-((R or S)-6-chloro-4-((1R,5S)-1,5-dimethyl-3,8-diazabicyclo[3.2.1]octan-3-yl)-8-fluoro-2-(((S)-1-methylpyrrolidin-2-yl)methoxy)quinazolin-7-yl)naphthalen-2-ol diformate], the IC50 was 205 nM on KRAS_WT and SOS1; 27.9 nM at KRAS-G12D and SOS1; 155 nM at KRAS_G12D and cRAF.

With `C[C@@H](COc1nc(N2CC3CCC(C2)N3)c2cc(Cl)c(-c3cc(O)cc4ccccc34)c(F)c2n1)CN1C[C@H](C)OC[C@@H]1C` (single isomer, unassigned) [Compound 225, 4-((S or R)-4-((1R,5S)-3,8-diazabicyclo[3.2.1]octan-3-yl)-6-chloro-2-((R)-3-((2S,5S)-2,5-dimethylmorpholinyl)-2-methylpropoxy)-8-fluoroquinazolin-7-yl)naphthalenol formate], the IC50 at KRAS_WT and SOS1 came to 969 nM; on KRAS-G12D and SOS1 it was 17.2 nM; on KRAS_G12D and cRAF, 17.8 nM.

In the case of `C[C@@H](COc1nc(N2CC3CCC(C2)N3)c2cc(Cl)c(-c3cc(O)cc4ccccc34)c(F)c2n1)CN1CCO[C@@H](C)C1` (single isomer, unassigned) [Compound 247, 4-((S or R)-4-((1R,5S)-3,8-diazacyclo[3.2.1]octan-3-yl)-6-chloro-8-fluoro-2-((R)-2-methyl-3-((S)-2-methylmorpholinyl)propoxy)quinazolin-7-yl)naphthalen-2-ol formate], the IC50 at KRAS_WT and SOS1 amounted to 944 nM; on KRAS-G12D and SOS1 it was 13.3 nM; at KRAS_G12D and cRAF, 28.5 nM.

Take `CN(C)CCOc1nc(N2CC3CCC(C2)N3)c2cc(Cl)c(-c3cc(O)cc4ccccc34)c(F)c2n1` (single isomer, unassigned) [Compound 48a, 4-((S or R)-4-((1R,5S)-3,8-diazabicyclo[3.2.1]octan-3-yl)-6-chloro-2-(2-(dimethylamino)ethoxy)-8-fluoroquinazolin-7-yl)naphthalen-2-ol]: the IC50 on KRAS_WT and SOS1 was determined as 6020 nM; on KRAS-G12D and SOS1, 23.8 nM; on KRAS_G12D and cRAF it was 130 nM.

As to `CN(C)C1CN(c2nc(N3C[C@H]4CC[C@@H](C3)N4)c3cc(Cl)c(-c4cc(O)cc5ccccc45)c(F)c3n2)C1` (single isomer, unassigned) [Compound 5a, (R or S)-4-(4-((1R,5S)-3,8-diazabicyclo [3.2.1]octan-3-yl)-6-chloro-2-(3-(dimethylamino)azetidin-1-yl)-8-fluoro-quinazolin-7-yl)naphthalen-2-ol], the IC50 is 1810 nM on KRAS_WT and SOS1; 41.4 nM on KRAS-G12D and SOS1; 251 nM on KRAS_G12D and cRAF.

As to `CN(C)C1CCC(Oc2nc(N3CC4CCC(C3)N4)c3cc(Cl)c(-c4cc(O)cc5ccccc45)c(F)c3n2)C1` (single isomer, unassigned) [Compound 70c, 4-((S or R)-4-((1R,5S)-3,8-diazabicyclo[3.2.1]octan-3-yl)-6-chloro-2-((1S,3S or 1R,3R)-3-(dimethylamino)cyclopentyl)oxy)-8-fluoroquinazolin-7-yl)naphthalen-2-ol dihydrochloride], the IC50 on KRAS_WT and SOS1 is 38300 nM; at KRAS-G12D and SOS1, 74.1 nM; on KRAS_G12D and cRAF, 417 nM.

Turning to `Oc1cc(-c2c(Cl)cc3c(N4CC5CCC(C4)N5)nc(OCCCN4CCC5(CCOC5)C4)nc3c2F)c2ccccc2c1` (single isomer, unassigned) [Compound 270, (4R or 4S)-4-(2-(3-(2-oxo-7-azaspiro[4.4]nonan-7-yl)propoxy)-4-(1R,5S)-3,8-diazacyclo[3.2.1]octan-3-yl)-6-chloro-8-fluoroquinazolin-7-yl)naphthalen-2-ol diformate], the IC50 is 1210 nM on KRAS_WT and SOS1; 43.1 nM at KRAS-G12D and SOS1; 202 nM on KRAS_G12D and cRAF.

Take `CN1C[C@H](F)C[C@H]1COc1nc(N2CC3CCC(C2)N3)c2cnc(-c3cc(O)cc4ccccc34)c(F)c2n1` [Compound 131]: the IC50 on KRAS_WT and SOS1 worked out at 222 nM; at KRAS-G12D and SOS1, 20.9 nM; at KRAS_G12D and cRAF, 37 nM.

As for `CCN(C)CCCOc1nc(N2CC3CCC(C2)N3)c2cc(Cl)c(-c3cc(O)cc4ccccc34)c(F)c2n1` (single isomer, unassigned) [Compound 49a], the IC50 at KRAS_WT and SOS1 amounted to 1710 nM; on KRAS-G12D and SOS1 it was 36.2 nM; on KRAS_G12D and cRAF, 159 nM.

With `Oc1cc(-c2c(Cl)cc3c(N4CC5CCC(C4)N5)nc(OCC4(CN5C6CCC5COC6)CC4)nc3c2F)c2ccccc2c1` (single isomer, unassigned) [Compound 119, 4-((7S or R)-2-((1-((3-oxa-8-azabicyclo[3.2.1]octan-8-yl)methyl)cyclopropyl)methoxy)-4-((1R,5S)-3,8-diazabicyclo[3.2.1]octan-3-yl)-6-chloro-8-fluoroquinazolin-7-yl)naphthalen-2-ol formate], the IC50 on KRAS_WT and SOS1 is 160 nM; on KRAS-G12D and SOS1 it was 14.5 nM; on KRAS_G12D and cRAF, 14.4 nM.

On to `Oc1cc(Cl)c(C2CC2)c(-c2c(Cl)cc3c(N4C[C@H]5CC[C@@H](C4)N5)nc(OCCCN4C5CCC4COC5)nc3c2F)c1` (single isomer, unassigned) [Compound 197a, 3-((7R or 7S)-2-(3-(3-oxa-8-azabicyclo[3.2.1]octan-8-yl)propoxy)-4-((1R,5S)-3,8-diazabicyclo[3.2.1]octan-3-yl)-6-chloro-8-fluoroquinazolin-7-yl)-5-chloro-4-cyclopropylphenol formate], for which the IC50 on KRAS_WT and SOS1 amounted to 833 nM; at KRAS-G12D and SOS1, 17.8 nM; at KRAS_G12D and cRAF, 59.8 nM.

Regarding `CN1CCCC1CCOc1nc(N2CC3CCC(C2)N3)c2cc(Cl)c(-c3cc(O)cc4ccccc34)c(F)c2n1` (single isomer, unassigned) [Compound 96b, 4-((S or R)-4-((1R,5S)-3,8-diazabicyclo[3.2.1]octan-3-yl)-6-chloro-8-fluoro-2-(2-((R or S)-1-methylpyrrolidin-2-yl)ethoxy)quinazolin-7-yl)naphthalen-2-ol], the IC50 was 2970 nM at KRAS_WT and SOS1; 34.3 nM on KRAS-G12D and SOS1; 156 nM on KRAS_G12D and cRAF.

Turning to `CCc1cccc2cc(O)cc(-c3c(F)cc4c(N5CC6CCC(C5)N6)nc(OCCCN5C6CCC5COC6)nc4c3F)c12` (single isomer, unassigned) [Compound 271a, 4-((7S or 7R)-2-(3-(3-oxa-8-azabicyclo[3.2.1]octan-8-yl)propoxy)-4-((1R,5S)-3,8-diazabicyclo[3.2.1]octan-3-yl)-6,8-difluoroquinazolin-7-yl)-5-ethylnaphthalen-2-ol diformate], the IC50 at KRAS_WT and SOS1 turned out to be 179 nM; at KRAS-G12D and SOS1, 9.86 nM; at KRAS_G12D and cRAF it was 11.4 nM.

Turning to `CN1CCC[C@H]1COc1nc(N2CC3CCC(C2)N3)c2cc(Cl)c(-c3cc(O)cc4ccccc34)c(F)c2n1` (single isomer, unassigned) [Compound 170, (R or S)-4-(4-((1R,5S)-3,8-diazabicyclo[3.2.1]octan-3-yl)-6-chloro-8-fluoro-2-((S)-1-methylpyrrolidin-2-yl)methoxy)quinazolin-7-yl)naphthalen-2-ol dihydrochloride], the IC50 on KRAS_WT and SOS1 was found to be 270 nM; on KRAS-G12D and SOS1, 12.8 nM; at KRAS_G12D and cRAF, 24.4 nM.

On to `CN1CC[C@H]1COc1nc(N2CC3CCC(C2)N3)c2cc(Cl)c(-c3cc(O)cc4ccccc34)c(F)c2n1` (single isomer, unassigned) [Compound 100, 4-((S or R)-4-((1R,5S)-3,8-diazabicyclo[3.2.1]octan-3-yl)-6-chloro-8-fluoro-2-(S)-1-methylazetidin-2-yl)methoxy)quinazolin-7-yl)naphthalen-2-ol bitrifluoroacetate], for which the IC50 at KRAS_WT and SOS1 is 504 nM; at KRAS-G12D and SOS1 it was 19.1 nM; at KRAS_G12D and cRAF, 53.7 nM.

In the case of `CN(C)C1CCC(Oc2nc(N3CC4CCC(C3)N4)c3cc(Cl)c(-c4cc(O)cc5ccccc45)c(F)c3n2)C1` (single isomer, unassigned) [Compound 70b, 4-((S or R)-4-((1R,5S)-3,8-diazabicyclo[3.2.1]octan-3-yl)-6-chloro-2-((1R,3S or 1S,3R)-3-(dimethylamino)cyclopentyl)oxy)-8-fluoroquinazolin-7-yl)naphthalen-2-ol dihydrochloride], the IC50 on KRAS_WT and SOS1 was more than 100000 nM; on KRAS-G12D and SOS1, 66 nM; on KRAS_G12D and cRAF it was 515 nM.

`CC(C)N(C)CCCOc1nc(N2CC3CCC(C2)N3)c2cc(Cl)c(-c3cc(O)cc4ccccc34)c(F)c2n1` (single isomer, unassigned) [Compound 50a, 4-((S or R)-4-((1R,5S)-3,8-diazabicyclo[3.2.1]octan-3-yl)-6-chloro-8-fluoro-2-(3-(isopropyl(methyl)amino)propoxy)quinazolin-7-yl)naphthalen-2-ol trifluoroacetate]: the IC50 on KRAS_WT and SOS1 turned out to be 1690 nM; at KRAS-G12D and SOS1, 44.3 nM; at KRAS_G12D and cRAF, 155 nM.
